Patent publication US9695155B2, “Herbicidal substituted pyrimidinyloxy benzene compounds” (E. I. DU PONT DE NEMOURS AND COMPANY, priority 2013, dated 2017)

What was measured:
velvetleaf [1] = assay: Test A preemergence; format: in vivo, Abutilon theophrasti; details: for Velvetleaf plant response rating (0 to 100 scale): 125 g ai/ha; for Velvetleaf plant response rating: 500 g ai/ha, 0 to 100 scale where 0 is no effect and 100 is complete control
In short: (§1)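 Greenhouse pot test, loam/sand soil. Formulation: non-phytotoxic solvent mix plus surfactant. Pre: directed spray onto soil after sowing. Post: plants at 1–2 leaf, 2–10 cm. Rated visually vs untreated controls at ~10 d, 0 (no effect) to 100 (complete control).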

large (Lg) crabgrass [2] = assay: Test A postemergence; format: in vivo, Digitaria sanguinalis; details: 0 to 100 scale where 0 is no effect and 100 is complete control; for Crabgrass, Large plant response rating: 125 g ai/ha; for Plant response rating, Crabgrass, Large: 500 g ai/ha
In short: as §1

giant foxtail [3] = assay: Test A postemergence; format: in vivo, Setaria faberii; details: 0 to 100 scale where 0 is no effect and 100 is complete control; for Foxtail, Giant plant response rating: 125 g ai/ha; for Plant response rating, Foxtail, Giant: 500 g ai/ha
In short: as §1

sedge, umbrella = assay: Test B flooded paddy test; format: in vivo, Cyperus difformis; details: Flood, 250 g ai/ha; 0 to 100 scale where 0 is no effect and 100 is complete control
In short: (§2)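 Plants were grown to the 2-leaf stage, then pots were flooded to 3 cm above the soil and compounds were applied directly into the paddy water. That depth was held throughout, and after 13 to 15 days in the greenhouse injury was rated visually against controls on a 0–100 scale (0 no effect, 100 complete control).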

barnyardgrass [4] = assay: Test B flooded paddy test; format: in vivo, Echinochloa crus-galli; details: Flood, 250 g ai/ha; 0 to 100 scale where 0 is no effect and 100 is complete control
In short: as §2

rice = assay: Test B flooded paddy test; format: in vivo, Oryza sativa; details: Flood, 250 g ai/ha; 0 to 100 scale where 0 is no effect and 100 is complete control
In short: as §2

pigweed [5] = assay: Test A preemergence; format: in vivo, Amaranthus retroflexus; details: for Pigweed plant response rating (0 to 100 scale): 125 g ai/ha; for Pigweed plant response rating: 500 g ai/ha, 0 to 100 scale where 0 is no effect and 100 is complete control
In short: as §1

giant foxtail [6] = assay: Test A preemergence; format: in vivo, Setaria faberii; details: for Foxtail, Giant plant response rating (0 to 100 scale): 125 g ai/ha; for Foxtail, Giant plant response rating: 500 g ai/ha, 0 to 100 scale where 0 is no effect and 100 is complete control
In short: as §1

wheat [7] = assay: Test A postemergence; format: in vivo, Triticum aestivum; details: 0 to 100 scale where 0 is no effect and 100 is complete control; for Wheat plant response rating: 125 g ai/ha; for Plant response rating, Wheat: 500 g ai/ha
In short: as §1

Heteranthera limosa = assay: Test B flooded paddy test; format: in vivo; details: Flood, 250 g ai/ha; 0 to 100 scale where 0 is no effect and 100 is complete control
In short: as §2

morningglory [8] = assay: Test A preemergence; format: in vivo, Ipomoea spp.; details: for Morningglory plant response rating (0 to 100 scale): 125 g ai/ha; for Morningglory plant response rating: 500 g ai/ha, 0 to 100 scale where 0 is no effect and 100 is complete control
In short: as §1

barnyardgrass [9] = assay: Test A postemergence; format: in vivo, Echinochloa crus-galli; details: 0 to 100 scale where 0 is no effect and 100 is complete control; for Barnyardgrass plant response rating: 125 g ai/ha; for Plant response rating, Barnyardgrass: 500 g ai/ha
In short: as §1

wheat [10] = assay: Test A preemergence; format: in vivo, Triticum aestivum; details: for Wheat plant response rating (0 to 100 scale): 125 g ai/ha; for Wheat plant response rating: 500 g ai/ha, 0 to 100 scale where 0 is no effect and 100 is complete control
In short: as §1

morningglory [11] = assay: Test A postemergence; format: in vivo, Ipomoea spp.; details: 0 to 100 scale where 0 is no effect and 100 is complete control; for Morningglory plant response rating: 125 g ai/ha; for Plant response rating, Morningglory: 500 g ai/ha
In short: as §1

barnyardgrass [12] = assay: Test A preemergence; format: in vivo, Echinochloa crus-galli; details: for Barnyardgrass plant response rating (0 to 100 scale, 0 is no effect, 100 is complete control): 125 g ai/ha; for Barnyardgrass plant response rating: 500 g ai/ha, 0 to 100 scale where 0 is no effect and 100 is complete control
In short: as §1

velvetleaf [13] = assay: Test A postemergence; format: in vivo, Abutilon theophrasti; details: 0 to 100 scale where 0 is no effect and 100 is complete control; for Velvetleaf plant response rating: 125 g ai/ha; for Plant response rating, Velvetleaf: 500 g ai/ha
In short: as §1

corn [14] = assay: Test A postemergence; format: in vivo, Zea mays; details: 0 to 100 scale where 0 is no effect and 100 is complete control; for Corn plant response rating: 125 g ai/ha; for Plant response rating, Corn: 500 g ai/ha
In short: as §1

large (Lg) crabgrass [15] = assay: Test A preemergence; format: in vivo, Digitaria sanguinalis; details: for Crabgrass, Large plant response rating (0 to 100 scale): 125 g ai/ha; for Crabgrass, Large plant response rating: 500 g ai/ha, 0 to 100 scale where 0 is no effect and 100 is complete control
In short: as §1

pigweed [16] = assay: Test A postemergence; format: in vivo, Amaranthus retroflexus; details: 0 to 100 scale where 0 is no effect and 100 is complete control; for Pigweed plant response rating: 125 g ai/ha; for Plant response rating, Pigweed: 500 g ai/ha
In short: as §1

corn [17] = assay: Test A preemergence; format: in vivo, Zea mays; details: for Corn plant response rating (0 to 100 scale): 125 g ai/ha; for Corn plant response rating: 500 g ai/ha, 0 to 100 scale where 0 is no effect and 100 is complete control
In short: as §1

O=Cc1cccc(Oc2ncc(Cl)cn2)c1-n1cc(Cl)cn1 [Compound 205] was tested, and the “Velvetleaf plant response rating (0 to 100 scale)” value (velvetleaf [1]) was 0, the “Velvetleaf plant response rating” value (velvetleaf [1]) was 10 and the “Crabgrass, Large plant response rating” value (large (Lg) crabgrass [2]) was 0. The “Plant response rating, Crabgrass, Large” value (large (Lg) crabgrass [2]) was 0, the “Foxtail, Giant plant response rating” value (giant foxtail [3]) was 0 and the “Plant response rating, Foxtail, Giant” value (giant foxtail [3]) was 0. The “Plant response rating, Sedge, Umbrella” value (sedge, umbrella) was 0, the “Plant response rating, Barnyardgrass” value (barnyardgrass [4]) was 0 and the “Plant response rating, Rice” value (rice) was 0. The “Pigweed plant response rating (0 to 100 scale)” value (pigweed [5]) was 0, the “Pigweed plant response rating” value (pigweed [5]) was 10 and the “Foxtail, Giant plant response rating (0 to 100 scale)” value (“Foxtail … (0 to 100 scale)” for short) (giant foxtail [6]) was 0. The “Foxtail, Giant plant response rating” value (giant foxtail [6]) was 0, the “Wheat plant response rating” value (wheat [7]) was 0 and the “Plant response rating, Wheat” value (wheat [7]) was 0. For the same compound, the “Plant response rating, Ducksalad” value (Heteranthera limosa) was 0, the “Morningglory plant response rating (0 to 100 scale)” value (morningglory [8]) was 0 and the “Morningglory plant response rating” value (morningglory [8]) was 0. The “Barnyardgrass plant response rating” value (barnyardgrass [9]) was 0, the “Plant response rating, Barnyardgrass” value (barnyardgrass [9]) was 0 and the “Wheat plant response rating (0 to 100 scale)” value (wheat [10]) was 0. The “Wheat plant response rating” value (wheat [10]) was 0, the “Morningglory plant response rating” value (morningglory [11]) was 0 and the “Plant response rating, Morningglory” value (morningglory [11]) was 0. The “Barnyardgrass plant response rating (0 to 100 scale, 0 is no effect, 100 is complete control)” value (barnyardgrass [12]) was 0, the “Barnyardgrass plant response rating” value (barnyardgrass [12]) was 0 and the “Velvetleaf plant response rating” value (velvetleaf [13]) was 10. The “Plant response rating, Velvetleaf” value (velvetleaf [13]) was 20, the “Corn plant response rating” value (corn [14]) was 0 and the “Plant response rating, Corn” value (corn [14]) was 0. For the same compound, the “Crabgrass, Large plant response rating (0 to 100 scale)” value (“Crabgrass … (0 to 100 scale)” for short) (large (Lg) crabgrass [15]) was 0, the “Crabgrass, Large plant response rating” value (large (Lg) crabgrass [15]) was 0 and the “Pigweed plant response rating” value (pigweed [16]) was 0. The “Plant response rating, Pigweed” value (pigweed [16]) was 0, the “Corn plant response rating (0 to 100 scale)” value (corn [17]) was 0 and the “Corn plant response rating” value (corn [17]) was 0.

N#Cc1ccc(Oc2ncc(Cl)cn2)c(-n2cc(Br)cn2)c1 [Compound 213] was tested, and the “Velvetleaf plant response rating (0 to 100 scale)” value (velvetleaf [1]) was 0, the “Velvetleaf plant response rating” value (velvetleaf [1]) was 0 and the “Crabgrass, Large plant response rating” value (large (Lg) crabgrass [2]) was 20. The “Plant response rating, Crabgrass, Large” value (large (Lg) crabgrass [2]) was 70, the “Foxtail, Giant plant response rating” value (giant foxtail [3]) was 10 and the “Plant response rating, Foxtail, Giant” value (giant foxtail [3]) was 30. The “Plant response rating, Sedge, Umbrella” value (sedge, umbrella) was 70, the “Plant response rating, Barnyardgrass” value (barnyardgrass [4]) was 0 and the “Plant response rating, Rice” value (rice) was 0. For the same compound, the “Pigweed plant response rating (0 to 100 scale)” value (pigweed [5]) was 50, the “Pigweed plant response rating” value (pigweed [5]) was 100 and the “Foxtail … (0 to 100 scale)” value (giant foxtail [6]) was 20. The “Foxtail, Giant plant response rating” value (giant foxtail [6]) was 100, the “Wheat plant response rating” value (wheat [7]) was 0 and the “Plant response rating, Wheat” value (wheat [7]) was 0. The “Plant response rating, Ducksalad” value (Heteranthera limosa) was 0, the “Morningglory plant response rating (0 to 100 scale)” value (morningglory [8]) was 0 and the “Morningglory plant response rating” value (morningglory [8]) was 10. For the same compound, the “Barnyardgrass plant response rating” value (barnyardgrass [9]) was 0, the “Plant response rating, Barnyardgrass” value (barnyardgrass [9]) was 10 and the “Wheat plant response rating (0 to 100 scale)” value (wheat [10]) was 0. The “Wheat plant response rating” value (wheat [10]) was 0, the “Morningglory plant response rating” value (morningglory [11]) was 20 and the “Plant response rating, Morningglory” value (morningglory [11]) was 30. For the same compound, the “Barnyardgrass plant response rating (0 to 100 scale, 0 is no effect, 100 is complete control)” value (barnyardgrass [12]) was 0, the “Barnyardgrass plant response rating” value (barnyardgrass [12]) was 10 and the “Velvetleaf plant response rating” value (velvetleaf [13]) was 10. For the same compound, the “Plant response rating, Velvetleaf” value (velvetleaf [13]) was 20, the “Corn plant response rating” value (corn [14]) was 0 and the “Plant response rating, Corn” value (corn [14]) was 30. The “Crabgrass … (0 to 100 scale)” value (large (Lg) crabgrass [15]) was 10, the “Crabgrass, Large plant response rating” value (large (Lg) crabgrass [15]) was 100 and the “Pigweed plant response rating” value (pigweed [16]) was 100. The “Plant response rating, Pigweed” value (pigweed [16]) was 100, the “Corn plant response rating (0 to 100 scale)” value (corn [17]) was 0 and the “Corn plant response rating” value (corn [17]) was 0.

For N#Cc1cnc(Oc2cccc(C#N)c2-n2cc(Br)cn2)nc1 [Compound 214], the “Velvetleaf plant response rating (0 to 100 scale)” value (velvetleaf [1]) was 0, the “Velvetleaf plant response rating” value (velvetleaf [1]) was 0 and the “Crabgrass, Large plant response rating” value (large (Lg) crabgrass [2]) was 0. For the same compound, the “Plant response rating, Crabgrass, Large” value (large (Lg) crabgrass [2]) was 0, the “Foxtail, Giant plant response rating” value (giant foxtail [3]) was 0 and the “Plant response rating, Foxtail, Giant” value (giant foxtail [3]) was 0. The “Plant response rating, Sedge, Umbrella” value (sedge, umbrella) was 0, the “Plant response rating, Barnyardgrass” value (barnyardgrass [4]) was 0 and the “Plant response rating, Rice” value (rice) was 0. The “Pigweed plant response rating (0 to 100 scale)” value (pigweed [5]) was 0, the “Pigweed plant response rating” value (pigweed [5]) was 0 and the “Foxtail … (0 to 100 scale)” value (giant foxtail [6]) was 0. For the same compound, the “Foxtail, Giant plant response rating” value (giant foxtail [6]) was 0, the “Wheat plant response rating” value (wheat [7]) was 0 and the “Plant response rating, Wheat” value (wheat [7]) was 0. For the same compound, the “Plant response rating, Ducksalad” value (Heteranthera limosa) was 0, the “Morningglory plant response rating (0 to 100 scale)” value (morningglory [8]) was 0 and the “Morningglory plant response rating” value (morningglory [8]) was 0. For the same compound, the “Barnyardgrass plant response rating” value (barnyardgrass [9]) was 0, the “Plant response rating, Barnyardgrass” value (barnyardgrass [9]) was 0 and the “Wheat plant response rating (0 to 100 scale)” value (wheat [10]) was 0. For the same compound, the “Wheat plant response rating” value (wheat [10]) was 0, the “Morningglory plant response rating” value (morningglory [11]) was 0 and the “Plant response rating, Morningglory” value (morningglory [11]) was 0. The “Barnyardgrass plant response rating (0 to 100 scale, 0 is no effect, 100 is complete control)” value (barnyardgrass [12]) was 0, the “Barnyardgrass plant response rating” value (barnyardgrass [12]) was 0 and the “Velvetleaf plant response rating” value (velvetleaf [13]) was 0. For the same compound, the “Plant response rating, Velvetleaf” value (velvetleaf [13]) was 0, the “Corn plant response rating” value (corn [14]) was 0 and the “Plant response rating, Corn” value (corn [14]) was 0. For the same compound, the “Crabgrass … (0 to 100 scale)” value (large (Lg) crabgrass [15]) was 0, the “Crabgrass, Large plant response rating” value (large (Lg) crabgrass [15]) was 0 and the “Pigweed plant response rating” value (pigweed [16]) was 0. For the same compound, the “Plant response rating, Pigweed” value (pigweed [16]) was 0, the “Corn plant response rating (0 to 100 scale)” value (corn [17]) was 0 and the “Corn plant response rating” value (corn [17]) was 0.
